Measurements taken from ChEMBL document CHEMBL3886685, “Nitrogen-containing bicyclic aromatic heterocyclic compound” (2016).
pIC50: −log10 of the molar value.

What follows are compounds tested against Cathepsin S (Homo sapiens, UniProt P25774) (assay: Inhibition Assay: 5 μL of a human cathepsin S enzyme (R&D1183-CY-010) was added to a 96-well plate so as to be 20 ng/well. Next, 10-fold dilution of the test compound (a 10 mM DMSO solution) was serially performed with a buffer solution for assay (a solution of 50 mM […], 250 mM sodium chloride and 5 mM dithiothreitol (DTT), adjusted to pH=4.5 with 1 N hydrochloric acid) six times such that the final concentration becomes 0.1 nM to 10 μM then, 20 μL of each of the solutions was added to the wells (the final DMSO concentration was 0.1%), and 25 μL of synthetic substrate VVR-AMC (3211-V manufactured by PEPTIDE […], INC.) was added thereto such that the final concentration becomes 40 μM, thereby starting a enzyme reaction. A fluorescence intensity (an excitation wavelength: 380 nm and a fluorescent wavelength: 460 nm) was measured at 37° C. for 10 minutes immediately after the start of the reaction using a fluorescence spectrophotometer (SPECTRA MAX GEMINI, manu).
Chain of Cathepsin S (P25774 whole entry): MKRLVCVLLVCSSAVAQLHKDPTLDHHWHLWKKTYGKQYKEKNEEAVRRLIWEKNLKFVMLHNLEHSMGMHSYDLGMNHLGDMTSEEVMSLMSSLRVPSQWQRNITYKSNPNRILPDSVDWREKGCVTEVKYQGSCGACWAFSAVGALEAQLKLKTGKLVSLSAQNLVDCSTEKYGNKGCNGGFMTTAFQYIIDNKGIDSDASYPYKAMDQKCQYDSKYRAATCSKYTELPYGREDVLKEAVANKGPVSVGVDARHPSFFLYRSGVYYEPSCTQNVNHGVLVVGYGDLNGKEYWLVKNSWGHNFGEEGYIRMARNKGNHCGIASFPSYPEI

| Compound | pIC50 |
| --- | --- |
| N#Cc1nc(-c2ccc(OCCC3CCNCC3)c(C#N)c2)c2ccn(CC3CCOC3)c2n1 (centres undefined) | 8.48 |
| CN1CCC[C@@H]1C(=O)N1CC[C@@H](OCCOc2ncc(-c3nc(C#N)nc4c3ccn4C)cc2C(F)(F)F)C1 | 8.62 |
| N#Cc1nc(-c2ccc(OCCC3CCN(C(CF)CF)CC3)c(C#N)c2)c2ccn(CC3CCOC3)c2n1 (centres undefined) | 8.05 |
| N#Cc1nc(-c2cnc(OCCC3CCNCC3)c(C(F)(F)F)c2)c2ccn(CC(=O)N3CCOCC3)c2n1 | 8.51 |
| CC(C)N1CCC(CCOc2ccc(-c3nc(C#N)nc4c3ccn4CC3CCOC3)cc2C#N)CC1 (centres undefined) | 8.37 |
| CCN1CCC(CCOc2ccc(-c3nc(C#N)nc4c3ccn4CC3CCOC3)cc2C#N)CC1 (centres undefined) | 8.57 |
| N#Cc1nc(-c2ccc(OCCC3CCNCC3)c(C(F)(F)F)c2)c2ccn(CC3CCOC3)c2n1 (centres undefined) | 8.72 |
| N#Cc1nc(-c2ccc(OCCC3CCNCC3)c(C(F)(F)F)c2)c2ccn(C3CCOC3)c2n1 (centres undefined) | 8.55 |
| N#Cc1nc(-c2cnc(OCCC3CCNCC3)c(C(F)(F)F)c2)c2ccn(CC3CCOC3)c2n1 (centres undefined) | 8.47 |
| CCN1CCC(COc2ccc(-c3nc(C#N)nc4c3ccn4CC3CCOC3)cc2C(F)(F)F)CC1 (centres undefined) | 8.55 |
| CCOc1ccc(-c2nc(C#N)nc3c2ccn3CC(=O)NC2CCN(C)CC2)cc1C(F)(F)F | 8.54 |
| Cn1ccc2c(-c3cnc(OCCC4CCCNC4)c(C(F)(F)F)c3)nc(C#N)nc21 (centres undefined) | 8.57 |
| N#Cc1nc(-c2ccc(OCCC3CCNCC3)c(C(F)(F)F)c2)c2cc[nH]c2n1 | 8.66 |
| CCN1CCC(C)(COc2ccc(-c3nc(C#N)nc4c3ccn4C)cc2C(F)(F)F)CC1 | 8.42 |
| CCN1CCC(CCOc2ncc(-c3nc(C#N)nc4c3ccn4CC3CCOC3)cc2C(F)(F)F)CC1 (centres undefined) | 8.59 |
| CCN1CC(COc2ccc(-c3nc(C#N)nc4c3ccn4C)cc2C(F)(F)F)C1 | 8.51 |
| N#Cc1nc(-c2cnc(OCCC3CCNCC3)c(C(F)(F)F)c2)c2ccn(CC3CCOCC3)c2n1 | 8.46 |
| CN(C)C(=O)CN1CCC(CCOc2ncc(-c3nc(C#N)nc4c3ccn4C)cc2C(F)(F)F)CC1 | 8.66 |
| CCN1CCC(CCOc2ncc(-c3nc(C#N)nc4c3ccn4CC3CCOCC3)cc2C(F)(F)F)CC1 | 8.49 |
| CCN1CCCC(COc2ccc(-c3nc(C#N)nc4c3ccn4C)cc2C(F)(F)F)C1 (centres undefined) | 8.52 |

| Compound | pIC50 |
| --- | --- |
| CCN1CCN(C(=O)COc2ccc(-c3nc(C#N)nc4c3ncn4C)cc2C(F)(F)F)CC1 | 8.59 |
| Cn1ccc2c(-c3cnc(OCCC4CCNCC4)c(C(F)(F)F)c3)nc(C#N)nc21 | 8.60 |
| CN(C)C(=O)CN1CCCC(COc2ccc(-c3nc(C#N)nc4c3ccn4C)cc2C(F)(F)F)C1 (centres undefined) | 8.40 |
| CCN1CCC(OCCOc2ccc(-c3nc(C#N)nc4c3ccn4C)cc2C(F)(F)F)CC1 | 8.70 |
| N#Cc1nc(-c2ccc(OCCC3CCNCC3)c(C(F)(F)F)c2)c2ccn(C3CCOCC3)c2n1 | 8.59 |
| Cn1ccc2c(-c3ccc(OCCC4CC5CCC(C4)N5)c(C(F)(F)F)c3)nc(C#N)nc21 (centres undefined) | 8.44 |
| CCN1CCC(CCOc2ncc(-c3nc(C#N)nc4c3ccn4C)cc2C(F)(F)F)CC1 | 8.72 |
| Cn1ccc2c(-c3ccc(OCC4CNC4)c(C(F)(F)F)c3)nc(C#N)nc21 | 8.35 |
| CN1CCC[C@H]1C(=O)N1CC(COc2ccc(-c3nc(C#N)nc4c3ccn4C)cc2C(F)(F)F)C1 | 8.68 |
| Cn1ccc2c(-c3ccc(OCCOC4CCNCC4)c(C(F)(F)F)c3)nc(C#N)nc21 | 8.68 |
| CCn1ccc2c(-c3ccc(OCCC4CCNCC4)c(C(F)(F)F)c3)nc(C#N)nc21 | 8.52 |
| Cn1ccc2c(-c3ccc(OCC4CCCNC4)c(C(F)(F)F)c3)nc(C#N)nc21 (centres undefined) | 8.51 |
| CN1CCC[C@H]1C(=O)N1CCC(CCOc2ccc(-c3nc(C#N)nc4c3ccn4CC3CCOC3)cc2C#N)CC1 (some centres undefined) | 8.11 |
| CCN1CCC(CCOc2ncc(-c3nc(C#N)nc4c3ccn4CC(=O)N3CCOCC3)cc2C(F)(F)F)CC1 | 8.62 |
| CCN1CCC(CCOc2ncc(-c3nc(C#N)nc4c3ncn4CC3CCOC3)cc2C(F)(F)F)CC1 (centres undefined) | 8.70 |
| N#Cc1nc(-c2ccc(OCCC3CCNCC3)c(C(F)(F)F)c2)c2ccn(CC3CCCO3)c2n1 (centres undefined) | 8.59 |
| Cn1ccc2c(-c3ccc(OCC4(C)CCNCC4)c(C(F)(F)F)c3)nc(C#N)nc21 | 8.44 |
| Cn1c(C(F)(F)F)nc2c(-c3cnc(OCCC4CCNCC4)c(C(F)(F)F)c3)nc(C#N)nc21 | 8.48 |
| N#Cc1nc(-c2ccc(OCC3CCNCC3)c(C(F)(F)F)c2)c2ccn(CC3CCOC3)c2n1 (centres undefined) | 8.72 |
| Cn1ccc2c(-c3ccc(SCCC4CCNCC4)c(C(F)(F)F)c3)nc(C#N)nc21 | 8.77 |

The remaining lines, values ahead:

| pIC50 | Compound |
| --- | --- |
| 8.46 | CN1CCC[C@H]1C(=O)N1CCC(CCOc2ccc(-c3nc(C#N)nc4c3ncn4C)cc2C(F)(F)F)CC1 |
| 8.48 | CN1CCC[C@H]1C(=O)N1CCC(CCOc2ccc(-c3nc(C#N)nc4c3ccn4C3COC3)cc2C(F)(F)F)CC1 |
| 8.64 | CN1CCC(C(=O)N2CCC(CCOc3ccc(-c4nc(C#N)nc5c4ncn5C)cc3C(F)(F)F)CC2)C1 (centres undefined) |
| 8.64 | Cc1nnc(CN2CCC(CCOc3ccc(-c4nc(C#N)nc5c4ncn5C)cc3C(F)(F)F)CC2)o1 |
| 8.72 | CN(C)C(=O)CN1CCC(CCOc2ccc(-c3nc(C#N)nc4c3ccn4CCO)cc2C(F)(F)F)CC1 |
| 8.70 | Cn1ccc2c(-c3ccc(OCCC4CCN(C(C)(C)C)CC4)c(C(F)(F)F)c3)nc(C#N)nc21 |
| 8.05 | Cn1cnc2c(-c3ccc(OCC(=O)N4CCNCC4)c(C(F)(F)F)c3)nc(C#N)nc21 |
| 8.66 | CCN1CCC(CCOc2ccc(-c3nc(C#N)nc4c3ncn4CC3CCOC3)cc2C(F)(F)F)CC1 (centres undefined) |
| 8.68 | Cn1cnc2c(-c3ccc(OCCC4CCN(CC(=O)N5CCC(C#N)CC5)CC4)c(C(F)(F)F)c3)nc(C#N)nc21 |
| 8.49 | N#Cc1nc(-c2ccc(OCCC3CCN(CCO)CC3)c(C(F)(F)F)c2)c2ccn(CC3CCCO3)c2n1 (centres undefined) |
| 8.85 | Cn1cnc2c(-c3cnc(OCCC4CCNCC4)c(C(F)(F)F)c3)nc(C#N)nc21 |
| 8.54 | CN(C)C(=O)CN1CCC(CCOc2ccc(-c3nc(C#N)nc4c3ccn4CC3CCOC3)cc2C(F)(F)F)CC1 (centres undefined) |
| 9.12 | Cn1cnc2c(-c3ccc(OCCC4CCN(CCO)CC4)c(C(F)(F)F)c3)nc(C#N)nc21 |
| 8.51 | CN1CCC[C@H]1C(=O)N1CCC(CCOc2ncc(-c3nc(C#N)nc4c3ncn4C)cc2C(F)(F)F)CC1 |
| 8.57 | Cn1cnc2c(-c3ccc(OCCC4CCN(CC#N)CC4)c(C(F)(F)F)c3)nc(C#N)nc21 |
| 8.54 | CCN1CCC(CCOc2ccc(-c3nc(C#N)nc4c3ccn4C3COC3)cc2C(F)(F)F)CC1 |
| 8.62 | Cn1cnc2c(-c3ccc(OCCC4CCN(CC(=O)N5CCC(F)(F)C5)CC4)c(C(F)(F)F)c3)nc(C#N)nc21 |
| 8.32 | CN1CCC[C@H]1C(=O)N1CCC(CCOc2ncc(-c3nc(C#N)nc4c3ccn4C)cc2C(F)(F)F)CC1 |
| 8.60 | N#Cc1nc(-c2ccc(OCCC3CCOCC3)c(C(F)(F)F)c2)c2ccn(CC(=O)N3CCC(CN4CCCC4)CC3)c2n1 |
| 8.77 | Cn1cnc2c(-c3ccc(OCCC4CCNCC4)c(C(F)(F)F)c3)nc(C#N)nc21 |
| 9.00 | CN1CCC[C@@H]1C(=O)N1CCC(CCOc2ncc(-c3nc(C#N)nc4c3ncn4C)cc2C(F)(F)F)CC1 |
| 8.41 | CCN1CCC(CCOc2ccc(-c3nc(C#N)nc4c3ccn4CC3CCOC3)cc2C(F)(F)F)CC1 (centres undefined) |

| pIC50 | Compound |
| --- | --- |
| 8.80 | Cn1cnc2c(-c3ccc(OCCC4CCN(CC(=O)N5CCCC5)CC4)c(C(F)(F)F)c3)nc(C#N)nc21 |
| 8.33 | CN1CCC[C@H]1C(=O)N1CCC(CCOc2ccc(-c3nc(C#N)nc4c3ccn4CC3CCOC3)cc2C(F)(F)F)CC1 (some centres undefined) |
| 8.66 | CN1CCC[C@H]1C(=O)N1CCC(COc2ccc(-c3nc(C#N)nc4c3ccn4CC3CCOC3)cc2C(F)(F)F)CC1 (some centres undefined) |
| 8.43 | CCN1CCC(CCOc2ccc(-c3nc(C#N)nc4c3ccn4CC)cc2C(F)(F)F)CC1 |
| 8.21 | Cn1cnc2c(-c3ccc(OCCC4CCN(C(=O)CO)CC4)c(C(F)(F)F)c3)nc(C#N)nc21 |
| 8.64 | CCN1CCC(CCOc2ccc(-c3nc(C#N)nc4c3ccn4CCO)cc2C(F)(F)F)CC1 |
| 8.64 | CN1CCC[C@H]1C(=O)N1CCC(CCOc2ccc(-c3nc(C#N)nc4c3ccn4C)cc2C(F)(F)F)C1 (some centres undefined) |
| 8.66 | CN1CCC(N(C)C(=O)Cn2ccc3c(-c4ccc(OCCC5CCOCC5)c(C(F)(F)F)c4)nc(C#N)nc32)C1 (centres undefined) |
| 8.44 | CN1CCC[C@H]1C(=O)N1CCCC(COc2ccc(-c3nc(C#N)nc4c3ccn4C)cc2C(F)(F)F)C1 (some centres undefined) |
| 8.85 | CN1CCC[C@H]1C(=O)N1CCC(CCOc2ncc(-c3nc(C#N)nc4c3ncn4CC3CCOC3)cc2C(F)(F)F)CC1 (some centres undefined) |
| 8.77 | Cn1cnc2c(-c3ccc(OCCC4CCN(CC(=O)N5CC[C@H](F)C5)CC4)c(C(F)(F)F)c3)nc(C#N)nc21 |
| 8.51 | N#Cc1nc(-c2ccc(OCCC3CCN(CCO)CC3)c(C(F)(F)F)c2)c2ccn(CC3CCOC3)c2n1 (centres undefined) |
| 9.00 | CCN1CCC(CCOc2ncc(-c3nc(C#N)nc4c3ncn4C)cc2C(F)(F)F)CC1 |
| 8.64 | CN1C[C@@H](O)C[C@H]1C(=O)N1CCC(CCOc2ccc(-c3nc(C#N)nc4c3ncn4C)cc2C(F)(F)F)CC1 |
| 8.92 | CCN1CCC(CCOc2ccc(-c3nc(C#N)nc4c3ncn4C)cc2C(F)(F)F)CC1 |
| 8.68 | Cn1ccc2c(-c3cnc(OCC4CCN(C(=O)C5CCN(CC(C)(C)O)CC5)CC4)c(C(F)(F)F)c3)nc(C#N)nc21 |
| 8.57 | CN1CCC(C(=O)N2CCC(CCOc3ccc(-c4nc(C#N)nc5c4ncn5C)cc3C(F)(F)F)CC2)CC1 |
| 8.68 | CC(C)N1CCC[C@H]1C(=O)N1CCC(CCOc2ncc(-c3nc(C#N)nc4c3ncn4C)cc2C(F)(F)F)CC1 |
| 8.72 | Cn1cnc2c(-c3cc(F)c(OCCC4CCNCC4)c(C(F)(F)F)c3)nc(C#N)nc21 |
| 8.70 | Cn1cnc2c(-c3cnc(OCCC4CCN(C5CCC5)CC4)c(C(F)(F)F)c3)nc(C#N)nc21 |
| 8.68 | CCN1CCC(CCOc2ccc(-c3nc(C#N)nc4c3ccn4C)cc2C(F)(F)F)C1 (centres undefined) |
| 8.70 | CCN1CCC(CCOc2ccc(-c3nc(C#N)nc4c3ccn4CC(N)=O)cc2C(F)(F)F)CC1 |
